Assay results taken from US8906909B2 (Curis, Inc., priority 2009, dated 2014).
pIC50: −log10 of the molar value. Where two headings read alike, the source gives them in different places.

Tests used:
[1] = test system: Ca127 cells; test: Cell proliferation assay Method B, Ca127; format: cell-based; details: HNC; Ca127; 72 hours, 0.5% fetal bovine serum, CellTiter-Glo; read-out: antiproliferative activity IC50, Ca127
Protocol: (§1) Cancer cell lines were plated at 5,000 to 10,000 per well in 96-well flat bottomed plates with various concentration of compounds. The cells were incubated with compounds for 72 hours in the presence of 0.5% of fetal bovine serum. Growth inhibition was accessed by adenosine triphosphate (ATP) content assay using Promega CellTiter-Glo kit. Promega CellTiter-Glo kit is an ATP monitoring system based on firefly luciferase. Briefly, 16 μl of mammalian cell lysis and substrate solution was added to 84 μl of culture medium per well to lyse the cells and stabilize the ATP. The mixture was shaken and incubated for 30 minutes and subsequently the luminescence was measured.

[2] = test system: BT-474 cells; test: Cell proliferation assay Method A (ATPlite), BT-474; format: cell-based; details: Homo sapiens, 72 hours, read-out: antiproliferative activity IC50, BT-474
Protocol: (§2) Cancer cell lines were plated at 5,000 to 10,000 per well in 96-well flat bottomed plates with various concentration of compounds. The cells were incubated with compounds for 72 hours in the presence of 0.5% of fetal bovine serum. Growth inhibition was accessed by adenosine triphosphate (ATP) content assay using Perkin Elmer ATPlite kit. ATPlite is an ATP monitoring system based on firefly luciferase. Briefly, 25 μl of mammalian cell lysis solution was added to 50 μl of phenol red-free culture medium per well to lyse the cells and stabilize the ATP. 25 μl of substrate solution was then added to the well and subsequently the luminescence was measured.

[3] = test system: BT474 cells; test: Cell proliferation assay Method B, BT474; format: cell-based; details: Homo sapiens, BT-474, 72 hours, read-out: antiproliferative activity IC50, BT474
Protocol: as §1

[4] = test system: MDA-MB-468 cells; test: Cell proliferation assay Method B, MDA-MB-468; format: cell-based; details: Homo sapiens, 72 hours, read-out: antiproliferative activity IC50, MDA-MB-468
Protocol: as §1

[5] = test system: Sk-Mel-28 cells; test: Cell proliferation assay Method B, Sk-Mel-28; format: cell-based; details: Homo sapiens, Melanoma, 72 hours, read-out: antiproliferative activity IC50, Sk-Mel-28
Protocol: as §1

[6] = test system: H1993 cells; test: Cell proliferation assay Method A (ATPlite), H1993; format: cell-based; details: Homo sapiens, NCI-H1993, 72 hours, read-out: antiproliferative activity IC50, H1993
Protocol: as §2

[7] = test system: A375 cells; test: Cell proliferation assay Method B, A375; format: cell-based; details: Homo sapiens, A-375, Melanoma, 72 hours, read-out: antiproliferative activity IC50, A375
Protocol: as §1

[8] = test system: U87MG cells; test: Cell proliferation assay Method B, U87MG; format: cell-based; details: Homo sapiens, U-87 MG, Glioblastoma, 72 hours, read-out: antiproliferative activity IC50, U87MG
Protocol: as §1

[9] = test system: HCC1937 cells; test: Cell proliferation assay Method B, HCC1937; format: cell-based; details: Homo sapiens, 72 hours, read-out: antiproliferative activity IC50, HCC1937
Protocol: as §1

[10] = test system: Sk-Mel-28 cells; test: Cell proliferation assay Method A (ATPlite), Sk-Mel-28; format: cell-based; details: Homo sapiens, 72 hours, read-out: antiproliferative activity IC50, Sk-Mel-28
Protocol: as §2

[11] = test system: HCT-118 cells; test: Cell proliferation assay Method A (ATPlite), HCT-118; format: cell-based; details: 72 hours, read-out: antiproliferative activity IC50, HCT-118
Protocol: as §2

[12] = test system: H1975 cells; test: Cell proliferation assay Method B, H1975; format: cell-based; details: Homo sapiens, NCI-H1975, NSCLC, 72 hours, read-out: antiproliferative activity IC50, H1975
Protocol: as §1

[13] = test system: HDACs (HeLa cell nuclear extracts); test: HDAC enzymatic activity, Biomol Color de Lys system; format: biochemical
How it was run: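 IC50 from sigmoidal dose-response fits of fluorescence (Ex 350–380, Em 440–460 nm). Compounds in DMSO dilution series incubated 1 h at 25 °C with HeLa nuclear extract HDACs and colorimetric substrate, pH 8.0 Tris/Cl buffer with NaCl, KCl, MgCl2, before developer termination.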

[14] = test system: MDA-MB-436 cells; test: Cell proliferation assay Method B, MDA-MB-436; format: cell-based; details: Homo sapiens, 72 hours, read-out: antiproliferative activity IC50, MDA-MB-436
Protocol: as §1

[15] = test system: RPMI-8226 cells; test: Cell proliferation assay Method B, RPMI-8226; format: cell-based; details: Homo sapiens, Multiple Myeloma, 72 hours, read-out: antiproliferative activity IC50, RPMI-8226
Protocol: as §1

[16] = test system: H1993 cells; test: Cell proliferation assay Method B, H1993; format: cell-based; details: Homo sapiens, NCI-H1993, NSCLC, 72 hours, read-out: antiproliferative activity IC50, H1993
Protocol: as §1

[17] = test system: MDA-MB-231 cells; test: Cell proliferation assay Method B, MDA-MB-231; format: cell-based; details: Homo sapiens, 72 hours, 0.5% fetal bovine serum, CellTiter-Glo, read-out: antiproliferative activity IC50, MDA-MB-231
Protocol: as §1

[18] = test system: HCC1806 cells; test: Cell proliferation assay Method B, HCC1806; format: cell-based; details: Homo sapiens, Breast, 72 hours, read-out: antiproliferative activity IC50, HCC1806
Protocol: as §1

[19] = test system: MCF-7 cells; test: Cell proliferation assay Method B, MCF-7; format: cell-based; details: Homo sapiens, MCF7, Breast, 72 hours, read-out: antiproliferative activity IC50, MCF-7
Protocol: as §1

[20] = test system: T47D cells; test: Cell proliferation assay Method B, T47D; format: cell-based; details: Homo sapiens, Breast, 72 hours, read-out: antiproliferative activity IC50, T47D
Protocol: as §1

[21] = test system: MDA-MB-361 cells; test: Cell proliferation assay Method B, MDA-MB-361; format: cell-based; details: Homo sapiens, Breast, 72 hours, read-out: antiproliferative activity IC50, MDA-MB-361
Protocol: as §1

[22] = test system: HCC1500 cells; test: Cell proliferation assay Method B, HCC1500; format: cell-based; details: Breast, 72 hours, read-out: antiproliferative activity IC50, HCC1500
Protocol: as §1

[23] = test system: ZR-75-1 cells; test: Cell proliferation assay Method B, ZR-75-1; format: cell-based; details: Homo sapiens, Breast, 72 hours, read-out: antiproliferative activity IC50, ZR-75-1
Protocol: as §1

[24] = test system: SKBr3 cells; test: Cell proliferation assay Method B, SKBr3; format: cell-based; details: Homo sapiens, SK-BR-3, Breast, 72 hours, read-out: antiproliferative activity IC50, SKBr3
Protocol: as §1

[25] = BT474, 0.5% fetal bovine serum, CellTiter-Glo
[26] = 0.5% fetal bovine serum, CellTiter-Glo
[27] = Sk-Mel-28, 0.5% fetal bovine serum, CellTiter-Glo
[28] = A375, 0.5% fetal bovine serum, CellTiter-Glo
[29] = U87MG, 0.5% fetal bovine serum, CellTiter-Glo
[30] = H1975, 0.5% fetal bovine serum, CellTiter-Glo
[31] = H1993, 0.5% fetal bovine serum, CellTiter-Glo

Compound | pIC50 [2] | pIC50 [3, 25] | pIC50 [4, 26] | melting point [°C] | pIC50 [6] | pIC50 [7, 28] | pIC50 [8, 29] | pIC50 [9, 26] | pIC50 [11] | pIC50 [12, 30] | pIC50 [13] | pIC50 [14, 26] | pIC50 ([3]; Breast, Method B) | pIC50 [16, 31] | pIC50 [1] | pIC50 [5, 27] | pIC50 [10] | other results
CNc1ncc(-c2nc(N3CCOCC3)c3sc(CN(C)c4ncc(C(=O)NO)cn4)cc3n2)cn1 [Compound 116, N-hydroxy-2-(methyl((2-(2-(methylamino)pyrimidin-5-yl)-4-morpholinothieno[3,2-d]pyrimidin-6-yl)methyl)amino)pyrimidine-5-carboxamide] | > 7.00 |  |  | 183 to 187 | > 7.00 |  |  |  | > 7.00 |  | > 7.00 |  | 7.00 to 8.00 |  |  |  | > 7.00 | pIC50 ([4]; Breast, Method B): 7.00 to 8.00; pIC50 ([5]; SK-MEL-28, Method B): > 8.00; pIC50 ([7]; Method B): 7.00 to 8.00; pIC50 ([8]; Method B): 7.00 to 8.00; pIC50 ([15]; Method B): > 8.00; pIC50 ([9]; Breast, Method B): 7.00 to 8.00; pIC50 ([12]; Method B): 7.00 to 8.00; pIC50 ([16]; Method B): 7.00 to 8.00; pIC50 ([14]; Breast, Method B): 7.00 to 8.00
CN(Cc1cc2nc(-c3ccc(N)nc3)nc(N3CCOCC3)c2s1)c1ncc(C(=O)NO)cn1 [Compound 110, 2-(((2-(6-Aminopyridin-3-yl)-4-morpholinothieno[3,2-d]pyrimidin-6-yl)methyl)(methyl)amino)-N-hydroxypyrimidine-5-carboxamide] | > 7.00 | > 8.00 | 7.00 to 8.00 | 175 to 181 | > 7.00 | 7.00 to 8.00 | > 8.00 | 7.00 to 8.00 | > 7.00 | 7.00 to 8.00 | > 7.00 | 7.00 to 8.00 |  | 7.00 to 8.00 | 7.00 to 8.00 | 7.00 to 8.00 | > 7.00 | pIC50 [17]: 7.00 to 8.00
COc1ncc(-c2nc(N3CCOCC3)c3sc(CN(C)c4ncc(C(=O)NO)cn4)cc3n2)cn1 [Compound 261, N-Hydroxy-2-(((2-(2-methoxypyrimidin-5-yl)-4-morpholinothieno[3,2-d]pyrimidin-6-yl)methyl)(methyl)amino)pyrimidine-5-carboxamide] |  |  |  | 215 to 220 |  |  |  |  |  |  | > 7.00 |  | > 8.00 |  |  |  |  | pIC50 [18]: > 8.00; pIC50 [19]: > 8.00; pIC50 [20]: > 8.00; pIC50 [21]: > 8.00; pIC50 [22]: > 8.00; pIC50 [23]: > 8.00; pIC50 [24]: 7.00 to 8.00
CN(Cc1cc2nc(-c3cccc(O)c3)nc(N3CCOCC3)c2s1)c1ncc(C(=O)NO)cn1 [Compound 132, N-hydroxy-2-(((2-(3-hydroxyphenyl)-4-morpholinothieno[3,2-d]pyrimidin-6-yl)methyl)(methyl)amino)pyrimidine-5-carboxamide] | > 7.00 | > 8.00 | 6.00 to 7.00 | 175 to 181 | > 7.00 | 7.00 to 8.00 | 7.00 to 8.00 | 6.00 to 7.00 | > 7.00 | 7.00 to 8.00 | > 7.00 | 7.00 to 8.00 |  | 7.00 to 8.00 | 7.00 to 8.00 | 7.00 to 8.00 | > 7.00 | pIC50 [15, 26]: > 8.00

The next lines start with results.

pIC50 [2] | pIC50 [3, 25] | pIC50 [4, 26] | melting point [°C] | pIC50 [6] | pIC50 [7, 28] | pIC50 [8, 29] | pIC50 [9, 26] | pIC50 [11] | pIC50 [12, 30] | pIC50 [13] | pIC50 [14, 26] | pIC50 ([3]; Breast, Method B) | pIC50 [16, 31] | Compound | pIC50 [1] | pIC50 [5, 27] | pIC50 [10] | other results
> 7.00 | 7.00 to 8.00 | 6.00 to 7.00 | 175 to 181 | > 7.00 | 7.00 to 8.00 | 7.00 to 8.00 | 7.00 to 8.00 | > 7.00 | 7.00 to 8.00 | > 7.00 | 6.00 to 7.00 |  |  | CN(Cc1cc2nc(-c3cnc(N)nc3)nc(N3CCOCC3)c2s1)c1ncc(C(=O)NO)cn1 [Compound 115, 2-(((2-(2-aminopyrimidin-5-yl)-4-morpholinothieno[3,2-d]pyrimidin-6-yl)methyl)(methyl)amino)-N-hydroxypyrimidine-5-carboxamide] | 7.00 to 8.00 | 7.00 to 8.00 | > 7.00 | 
 |  |  | 184 to 186 |  |  |  |  |  |  | > 7.00 |  | 7.00 to 8.00 |  | Cc1ncc(-c2nc(N3CCOCC3)c3sc(CN(C)c4ncc(C(=O)NO)cn4)cc3n2)cn1 [Compound 120, N-hydroxy-2-(methyl((2-(2-methylpyrimidin-5-yl)-4-morpholinothieno[3,2-d]pyrimidin-6-yl)methyl)amino)pyrimidine-5-carboxamide] |  |  |  | pIC50 ([4]; Breast, Method B): 7.00 to 8.00; pIC50 ([5]; SK-MEL-28, Method B): 7.00 to 8.00; pIC50 ([7]; Method B): 7.00 to 8.00; pIC50 ([8]; Method B): 7.00 to 8.00; pIC50 ([15]; Method B): > 8.00; pIC50 ([9]; Breast, Method B): 7.00 to 8.00; pIC50 ([12]; Method B): 7.00 to 8.00; pIC50 ([16]; Method B): 7.00 to 8.00; pIC50 ([14]; Breast, Method B): 7.00 to 8.00
 | > 8.00 | 7.00 to 8.00 | 228 to 230 |  | 7.00 to 8.00 | 7.00 to 8.00 |  |  | 7.00 to 8.00 | > 7.00 | 7.00 to 8.00 |  | 7.00 to 8.00 | CC(=O)Nc1ccc(-c2nc(N3CCOCC3)c3sc(CN(C)c4ncc(C(=O)NO)cn4)cc3n2)cc1 [Compound 157, 2-(((2-(4-acetamidophenyl)-4-morpholinothieno[3,2-d]pyrimidin-6-yl)methyl)(methyl)amino)-N-hydroxypyrimidine-5-carboxamide] | 7.00 to 8.00 | 7.00 to 8.00 |  | pIC50 [17]: 7.00 to 8.00; pIC50 [15, 26]: 7.00 to 8.00
